The values below are quoted from earlier work in patent US20250339568A1, “PRECURSOR AND RADIOTRACER FOR NEUROENDOCRINE THERANOSTICS” (ITM Oncologics GmbH, priority 2021, published 2025).

The data set deals with T1, HEK293-SSR2 tumour cells (Homo sapiens, UniProt P30874).
T1 construct: host or cells: HEK293-SSR2 tumour cells
The following applies: reference example of EP 2 801 582 A1, Table 12.

T1 sequence (P30874 whole entry): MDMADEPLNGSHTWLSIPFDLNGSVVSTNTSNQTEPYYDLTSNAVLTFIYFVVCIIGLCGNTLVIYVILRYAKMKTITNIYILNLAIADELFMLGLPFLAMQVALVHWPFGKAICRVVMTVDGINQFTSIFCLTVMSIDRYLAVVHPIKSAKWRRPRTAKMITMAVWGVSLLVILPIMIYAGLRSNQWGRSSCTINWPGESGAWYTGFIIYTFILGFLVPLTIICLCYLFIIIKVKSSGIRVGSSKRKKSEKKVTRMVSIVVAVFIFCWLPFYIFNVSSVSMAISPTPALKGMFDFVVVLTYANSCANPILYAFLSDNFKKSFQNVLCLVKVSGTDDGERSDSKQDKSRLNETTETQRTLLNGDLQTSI

Turning to “DOTA-Cpa-cyclo[DCys-Pal-DAph(Cbm)-Lys-Thr-Cys]DTyr-NH2”, the “uptake in HEK293-SSR2 tumour cells” value is given as “without quantifiable uptake”.
